Experimental data published in patent publication US20040023919A1, “Blood lipid ameliorant composition” (SANKYO COMPANY, LIMITED, priority 2000, published 2004).

Legend:
Format in all cases: in vivo, Beagle dogs
[1] = test system: lipid peroxides in the blood; assay: Blood lipid peroxide levels in dogs after oral administration for 11 days (Yagi's method); conditions: relative ratio against averaged pre-dosing level (100), oral once daily, atorvastatin 2 mg/kg, mean of 5 animals
Description: (§1) Atorvastatin was synthesized at Chemtech Labo.
(§2) Beagle dogs aged 5 months were purchased from Covance Research Products Inc. and used after 1 month of quarantine and acclimatisation breeding.
(§3) The required amounts of atorvastatin or each component of the combination drug calculated from the body weight of each dog were weighed and filled in a gelatin capsule (½ ounce) purchased from TORPAC Inc. Capsules filled with atorvastatin were stocked in a refrigerator and those filled with combination drugs stocked at room temperature until use.
(§4) Atorvastatin or combination drug capsules were forcibly orally administered to each of the test animals once daily between 9:00 and 12:30. Animals were fasted for 2 or 3 hr prior to administration of the capsules.
(§5) The administration period was 11 successive days.
(§6) Blood (10 mL) was collected from the superficial radial vein 2 or 1 weeks prior to administration and 4, 8, and 12 days after administration was started. Animals were fasted for approximately 18 hr prior to blood collection. Collected blood was placed in a test tube, left at room temperature for 0.5-1 hr, then centrifuged (3,000 rpm for 10 min). The obtained serum was used for assays of blood levels of total cholesterol, lipid peroxides and triglycerides according to CEH-COD-POD (Cholesterol ester hydrolase-Cholesteroloxidase-Peroxidase) methods, Yagi's methods and GK-GPO-POD (Glycerokinase-Glycerolphosphateoxidase-Peroxidase) methods respectively.
(§7) All these values were converted to their relative ratios against their averaged pre-dosing levels (100) determined 2 and 1 weeks prior to drug administration. The averaged value in each group was obtained from 5 animals per group.

[2] = test system: total cholesterol in the blood; assay: Blood total cholesterol levels in dogs after oral administration for 11 days (CEH-COD-POD method); conditions: relative ratio against averaged pre-dosing level (100), oral once daily, mean of 5 animals
Description: as §1, §2, §3, §4, §5
as §6, with “respectively. (For assay method, see: Kanai's Manual of Clinical Laboratory Medicine; 31st Edition (September 1998), Kanehara & Co., Ltd.).” for “respectively.”
(§8) All these levels were determined using a fluorometer (Hitachi, Ltd., F3000), a full automatic analyzer (Monarch, Instrumentation Laboratory), and an automatic analyzer (7170, Hitachi, Ltd.).
as §7

Blood FFA = Blood FFA levels in dogs after oral administration (Table 8); conditions: relative ratio against averaged pre-dosing level (100), oral once daily, atorvastatin 2 mg/kg, AA 500 mg/kg, mean of 5 animals
GOT = GOT levels in dogs after oral administration (Table 9); conditions: relative ratio against averaged pre-dosing level (100), oral once daily, atorvastatin 2 mg/kg, pantethine 300 mg/kg, mean of 5 animals
Description: Atorvastatin was synthesized at Chemtech Labo. Inc., and riboflavin butyrate, d-α-tocopherol acetate, ascorbic acid, pantethine and taurine were purchased from Mitsubishi-Tokyo Pharmaceutical Inc., Eisai Co., Ltd., NIPPON ROCHE K.K., Nacalai Tesque, Inc. and Dai-ich Pharmaceutical Co., Ltd., respectively.
as §2, §3, §4, §5
Blood (10 mL) was collected from the superficial radial vein 2 or 1 weeks prior to administration and 4, 8, and 12 days after administration was started. Animals were fasted for approximately 18 hr prior to blood collection. Collected blood was placed in a test tube, left at room temperature for 0.5-1 hr, then centrifuged (3,000 rpm for 10 min). […]
as §8
Total cholesterol levels and so forth in the blood collected from dogs treated with either atorvastatin alone or a combination drug consisting of atorvastatin plus one of riboflavin butyrate, d-α-tocopherol acetate, ascorbic acid, pantethine and taurine were determined. All these values were converted to their relative ratios against their averaged pre-dosing levels (100) determined 2 and 1 weeks prior to drug administration. […]

[3] = test system: triglycerides in the blood; assay: Blood triglyceride levels in dogs after oral administration for 11 days (GK-GPO-POD method); conditions: relative ratio against averaged pre-dosing level (100), oral once daily, statin 2 mg/kg, taurine 1000 mg/kg, mean of 5 animals
Description: as §1, §2, §3, §4, §5
as §6, with “respectively. (For assay method, see: Kanai's Manual of Clinical Laboratory Medicine; 31st Edition (September 1998), Kanehara & Co., Ltd.).” for “respectively.”
as §8, §7

[4] = atorvastatin 2 mg/kg, RFVb 200 mg/kg
[5] = atorvastatin 2 mg/kg, Tocoph 300 mg/kg
[6] = statin 2 mg/kg, taurine 1000 mg/kg

Row | SMILES | Blood Lipid Peroxide Levels after administration, 4 days ([1]; Tocoph 300 mg/kg) | Blood Lipid Peroxide Levels after administration, 8 days ([1]; Tocoph 300 mg/kg) | Blood Lipid Peroxide Levels after administration, 12 days ([1]; Tocoph 300 mg/kg) | Blood Total Cholesterol Levels after administration, 4 days [2, 4] | Blood Total Cholesterol Levels after administration, 4 days [2, 5] | Blood Total Cholesterol Levels after administration, 8 days [2, 4] | Blood Total Cholesterol Levels after administration, 8 days [2, 5] | Blood Total Cholesterol Levels after administration, 12 days [2, 4] | Blood Total Cholesterol Levels after administration, 12 days [2, 5] | Blood FFA Levels after administration, 4 days (Blood FFA) | Blood FFA Levels after administration, 8 days (Blood FFA) | Blood FFA Levels after administration, 12 days (Blood FFA) | further results
1 | CC(C)c1c(C(=O)Nc2ccccc2)c(-c2ccccc2)c(-c2ccc(F)cc2)n1CC[C@@H](O)C[C@@H](O)CC(=O)O (relative stereo) [Atorvastatin alone, [R-(R*,R*)]-2-(4-fluorophenyl)-β,δ-dihydroxy-5-(1-methylethyl)-3-phenyl-4-[phenylamino]carbonyl]-1H-pyrrole-1-heptanoic acid] | 104.5 | 84.4 | 80.9 | 102.9 | 102.9 | 95.5 | 95.5 | 90.9 | 90.9 | 102.9 | 95.5 | 90.9 | Blood Lipid Peroxide Levels after administration, 4 days ([1]; pantethine 300 mg/kg): 104.5; Blood Lipid Peroxide Levels after administration, 8 days ([1]; pantethine 300 mg/kg): 84.4; Blood Lipid Peroxide Levels after administration, 12 days ([1]; pantethine 300 mg/kg): 80.9; GOT Levels after administration, 4 days (GOT; 4 days): 102.9; GOT Levels after administration, 8 days (GOT; 8 days): 95.5; GOT Levels after administration, 12 days (GOT; 12 days): 90.9
2 | CCCC(=O)OC[C@@H](OC(=O)CCC)[C@@H](OC(=O)CCC)[C@H](Cn1c2nc(=O)[nH]c(=O)c-2nc2cc(C)c(C)cc21)OC(=O)CCC [RFVb alone, riboflavin butyrate] |  |  |  | 99.5 |  | 99.0 |  | 97.2 |  |  |  |  | 
3 | CCC(C)(C)C(=O)O[C@H]1C[C@@H](C)C=C2C=C[C@H](C)[C@H](CC[C@@H]3C[C@@H](O)CC(=O)O3)[C@H]21 [Simvastatin alone] |  |  |  |  |  |  |  |  |  |  |  |  | Blood Total Cholesterol Levels after administration, 4 days [2, 6]: 102.9; Blood Total Cholesterol Levels after administration, 8 days [2, 6]: 95.5; Blood Total Cholesterol Levels after administration, 12 days [2, 6]: 90.9; Blood Triglyceride Levels after administration, 4 days ([3]; 4 days): 87.1; Blood Triglyceride Levels after administration, 8 days ([3]; 8 days): 86.7; Blood Triglyceride Levels after administration, 12 days ([3]; 12 days): 74.1
4 | O=C1O[C@H]([C@@H](O)CO)C(O)=C1O [AA alone, ascorbic acid] |  |  |  |  |  |  |  |  |  | 95.9 | 96.7 | 98.9 | 
5 | CC(=O)Oc1c(C)c(C)c2c(c1C)CC[C@@](C)(CCC[C@H](C)CCC[C@H](C)CCCC(C)C)O2 [Tocoph alone, d-α-tocopherol acetate] | 106.3 | 119.0 | 75.9 |  | 97.7 |  | 95.1 |  | 97.5 |  |  |  | 
